Reference: ChEMBL document CHEMBL4130539, “Novel ureidopropanamide based N-formyl peptide receptor 2 (FPR2) agonists with potential application for central nervous system disorders characterized by neuroinflammation” (Eur J Med Chem, 2017)

Legend:
[1] = target: T1, N-formyl peptide receptor 2 (Homo sapiens) (UniProt P25090); assay: Agonist activity at FPR2 in human neutrophils assessed as induction of calcium mobilization measured every 5 secs for 240 secs by Fluo-4-AM dye based fluorometric method relative to fMLF
T1 sequence (whole entry): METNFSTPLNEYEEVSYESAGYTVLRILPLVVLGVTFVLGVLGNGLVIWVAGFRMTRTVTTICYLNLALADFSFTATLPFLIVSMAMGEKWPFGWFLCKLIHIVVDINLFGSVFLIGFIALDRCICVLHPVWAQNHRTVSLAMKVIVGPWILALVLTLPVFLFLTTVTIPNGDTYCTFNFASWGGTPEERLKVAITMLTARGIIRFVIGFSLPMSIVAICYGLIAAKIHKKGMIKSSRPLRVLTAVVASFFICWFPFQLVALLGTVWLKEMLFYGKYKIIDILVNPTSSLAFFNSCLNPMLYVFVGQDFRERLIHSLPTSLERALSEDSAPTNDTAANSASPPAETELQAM

[2] = target: T2, fMet-Leu-Phe receptor (Homo sapiens) (UniProt P21462); assay: Agonist activity at human FPR1 expressed in human HL60 cells assessed as induction of calcium mobilization measured every 5 secs for 240 secs by Fluo-4-AM dye based fluorometric method relative to fMLF; format: functional, cell-based
T2 sequence (whole entry): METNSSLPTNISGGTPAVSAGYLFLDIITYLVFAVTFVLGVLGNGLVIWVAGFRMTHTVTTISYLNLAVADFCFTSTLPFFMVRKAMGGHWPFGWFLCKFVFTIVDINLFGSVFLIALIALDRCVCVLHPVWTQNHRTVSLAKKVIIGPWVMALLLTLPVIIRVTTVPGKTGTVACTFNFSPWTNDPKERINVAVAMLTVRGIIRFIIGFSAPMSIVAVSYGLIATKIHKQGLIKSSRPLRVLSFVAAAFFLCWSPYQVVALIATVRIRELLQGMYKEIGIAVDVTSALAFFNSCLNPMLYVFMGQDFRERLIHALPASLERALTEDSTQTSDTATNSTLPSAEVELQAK

[3] = target: T1, N-formyl peptide receptor 2 (Homo sapiens); assay: Agonist activity at human FPR2 expressed in human HL60 cells assessed as induction of calcium mobilization measured every 5 secs for 240 secs by Fluo-4-AM dye based fluorometric method relative to WKYMVM; format: functional, cell-based
[4] = Metabolic stability in rat liver microsomes assessed as parent compound remaining at 10 uM preincubated for 10 mins followed by NADPH addition measured after 30 mins by liquid chromatographic method; format: ADME, microsome; settings: 0.5 h
[5] = target: T3, N-formyl peptide receptor 2 (Homo sapiens, UniProt P25090); assay: Agonist activity at FPR2 in human neutrophils assessed as induction of calcium mobilization measured every 5 secs for 240 secs by Fluo-4-AM dye based fluorometric method; format: functional
T3 sequence (P25090 whole entry): T1 sequence (whole entry)

[6] = target: T3, N-formyl peptide receptor 2; assay: Agonist activity at human FPR2 expressed in human HL60 cells assessed as induction of calcium mobilization measured every 5 secs for 240 secs by Fluo-4-AM dye based fluorometric method; format: functional, cell-based
[7] = target: T4, fMet-Leu-Phe receptor (Homo sapiens, UniProt P21462); assay: Agonist activity at human FPR1 expressed in human HL60 cells assessed as induction of calcium mobilization measured every 5 secs for 240 secs by Fluo-4-AM dye based fluorometric method; format: functional, cell-based
T4 sequence (P21462 whole entry): T2 sequence (whole entry)

[8] = Intrinsic clearance in rat liver microsomes at 10 uM preincubated for 10 mins followed by NADPH addition by liquid chromatographic method; format: ADME, microsome
[9] = Half life in rat liver microsomes at 10 uM preincubated for 10 mins followed by NADPH addition by liquid chromatographic method; format: ADME, microsome

| Efficacy [1] [%] | Efficacy [2] [%] | Efficacy [3] [%] | Stability [4] [%] | EC50 ([5]; read-out: EC50) [nM] | EC50 ([6]; read-out: EC50) [nM] | EC50 ([7]; read-out: EC50) [nM] | Microsomal intrinsic clearance (CLint) [8] [µL/min/mg] | t1/2 [9] [h] | EC50 [5] | EC50 [6] | EC50 [7] | SMILES |
| --- | --- | --- | --- | --- | --- | --- | --- | --- | --- | --- | --- | --- |
| 155 | 115 | 60 | 10 | 330 | 3400 | 450 | – | – | – | – | – | COc1ccc(NC(=O)N[C@@H](Cc2ccc(C#N)cc2)C(=O)NCC2(c3ccc(F)c(Cl)c3)CC2)cc1 |
| – | – | – | 8 | 1700 | 16300 | 10300 | – | – | – | – | – | COc1ccc(NC(=O)N[C@@H](Cc2ccc(C#N)cc2)C(=O)NCC2(c3ccc(C)c(F)c3)CC2)cc1 |
| 95 | 55 | 90 | 20 | 1300 | 300 | 5400 | 14.7 | 0.783 | – | – | – | N#Cc1ccc(C[C@@H](NC(=O)Nc2ccc(F)cc2)C(=O)NCC2(c3ccc(F)c(Cl)c3)CC2)cc1 |
| 115 | 100 | 60 | 5 | 730 | 1800 | 630 | – | – | – | – | – | COc1ccc(NC(=O)N[C@H](Cc2ccc(C#N)cc2)C(=O)NCC2(c3ccc(F)c(Cl)c3)CC2)cc1 |
| – | – | – | 4 | – | – | – | – | – | Not Active | Not Active | Not Active | O=C(Nc1ccccc1)N[C@H](Cc1c[nH]c2ccccc12)C(=O)NCC1(c2ccccc2)CC1 |
| – | – | – | 15 | – | – | – | – | – | – | – | – | O=C(Nc1ccc([N+](=O)[O-])cc1)N[C@H](Cc1c[nH]c2ccccc12)C(=O)NCC1(c2ccccc2)CC1 |
| – | – | – | 3 | 1400 | 110 | 950 | – | – | – | – | – | COc1ccc(NC(=O)N[C@@H](Cc2c[nH]c3ccccc23)C(=O)NCC2(c3ccccc3)CC2)cc1 |
| – | – | – | – | – | – | – | – | – | Not Active | Not Active | Not Active | O=C(Nc1ccc(F)cc1)N[C@H](Cc1c[nH]c2ccccc12)C(=O)NCC1(c2ccccc2)CC1 |
| – | – | – | 88 | – | – | – | – | – | Not Active | Not Active | Not Active | N#Cc1ccc(C[C@@H](NC(=O)Nc2ccc(F)cc2)C(=O)NCC2(c3ccc(OC(F)(F)F)cc3)CC2)cc1 |
| – | – | – | 4 | – | 6500 | – | – | – | Not Active | – | Not Active | COc1ccc(NC(=O)N[C@H](Cc2c[nH]c3ccccc23)C(=O)NCC2(c3ccccc3)CC2)cc1 |
| – | – | – | 10 | – | – | – | – | – | Not Active | Not Active | Not Active | COc1ccc(NC(=O)N[C@H](Cc2ccc(C#N)cc2)C(=O)NCC2(c3ccc(C)c(F)c3)CC2)cc1 |
| – | – | – | 39 | 1700 | 3000 | 5900 | – | – | – | – | – | Cc1ccc(C2(CNC(=O)[C@H](Cc3ccc(C#N)cc3)NC(=O)Nc3ccc(F)cc3)CC2)cc1F |
| – | – | – | 80 | – | – | – | – | – | Not Active | Not Active | Not Active | N#Cc1ccc(C[C@H](NC(=O)Nc2ccc(F)cc2)C(=O)NCC2(c3ccc(OC(F)(F)F)cc3)CC2)cc1 |
| – | – | – | 5 | 1500 | 6700 | 2400 | – | – | – | – | – | O=C(Nc1ccccc1)N[C@@H](Cc1c[nH]c2ccccc12)C(=O)NCC1(c2ccccc2)CC1 |
| 65 | 125 | 60 | 51 | 730 | 6400 | 850 | 6.3 | 1.83 | – | – | – | O=C(Nc1ccc([N+](=O)[O-])cc1)N[C@@H](Cc1cccnc1)C(=O)NCC1(c2ccccc2)CC1 |
| – | – | – | 43 | – | – | – | – | – | Not Active | Not Active | Not Active | COc1ccc(NC(=O)N[C@H](Cc2ccc(C#N)cc2)C(=O)NCC2(c3ccc(OC(F)(F)F)cc3)CC2)cc1 |
| 150 | 75 | 90 | 38 | 4100 | 1500 | 4700 | 7.29 | 1.58 | – | – | – | N#Cc1ccc(C[C@@H](NC(=O)Nc2ccc([N+](=O)[O-])cc2)C(=O)NCC2(c3ccccc3)CC2)cc1 |
| – | – | – | 37 | – | – | – | 10.04 | 0.983 | Not Active | Not Active | Not Active | Cc1ccc(C2(CNC(=O)[C@@H](Cc3ccc(C#N)cc3)NC(=O)Nc3ccc(F)cc3)CC2)cc1F |
| – | – | – | 4 | – | 2000 | 18800 | – | – | Not Active | – | – | O=C(Nc1ccc(F)cc1)N[C@@H](Cc1c[nH]c2ccccc12)C(=O)NCC1(c2ccccc2)CC1 |
| – | – | – | 51 | – | – | – | – | – | Not Active | Not Active | Not Active | COc1ccc(NC(=O)N[C@@H](Cc2ccc(C#N)cc2)C(=O)NCC2(c3ccc(OC(F)(F)F)cc3)CC2)cc1 |
